Data published in article PMC7170383 (Pharmaceutical Biology, 2020).

Assays:
CYP2C8 = molecular target: T1, CYP2C8 (Homo sapiens, UniProt P10632); experiment: CYP2C8 inhibition in pooled human liver microsomes (paclitaxel 6α-hydroxylation); type: in vitro ADME; settings: CEP 100 μM, pooled HLMs
T1 construct: from tissue; host or cells: pooled human liver microsomes
T1 sequence (P10632 1-490): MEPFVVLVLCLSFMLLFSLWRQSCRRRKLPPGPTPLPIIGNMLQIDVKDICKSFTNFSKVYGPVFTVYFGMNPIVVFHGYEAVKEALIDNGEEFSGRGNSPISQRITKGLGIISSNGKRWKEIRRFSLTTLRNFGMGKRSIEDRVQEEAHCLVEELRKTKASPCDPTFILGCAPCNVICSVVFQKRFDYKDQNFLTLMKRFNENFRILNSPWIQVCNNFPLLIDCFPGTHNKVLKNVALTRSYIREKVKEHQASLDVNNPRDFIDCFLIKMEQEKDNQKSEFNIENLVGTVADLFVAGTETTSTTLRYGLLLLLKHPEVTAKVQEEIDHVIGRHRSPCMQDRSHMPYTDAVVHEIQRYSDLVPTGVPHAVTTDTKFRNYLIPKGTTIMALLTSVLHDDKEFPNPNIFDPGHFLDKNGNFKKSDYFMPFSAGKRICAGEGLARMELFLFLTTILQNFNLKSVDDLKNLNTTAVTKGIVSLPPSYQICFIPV
Procedure: (§1) Marker reactions of eight CYP isoforms were examined, and apparent Km values were estimated to characterize the pooled HLMs. All incubations were performed in triplicate, and the mean values were utilized. The typical incubation systems contained 100 mM potassium phosphate buffer (pH 7.4), NADPH generating system (1 mM NADP^+, 10 mM glucose-6-phosphate, 1 U/mL of glucose-6-phosphate dehydrogenase and 4 mM MgCl2), the appropriate concentration of HLMs, a corresponding probe substrate and hispidulin (or positive inhibitor for different probe reactions) in a final volume of 200 μL.
(§2) There was a 3-min preincubation period (at 37 °C) before the reaction was initiated by adding an NADPH-generating system. The reaction was terminated by adding a 100 μL acetonitrile (10% trichloroacetic acid for CYP2A6) internal standard mix, and the solution was placed on ice. The mixture was centrifuged at 12,000 rpm for 10 min, and an aliquot (50 μL) of supernatant was transferred for HPLC analysis. The instrument used in this study was Agilent 1260 series instrument with DAD and FLD detector, and the quantitative assay for the corresponding metabolites was performed as previously reported (Lang et al. [2016]; Zhang et al. [2017]). The quantitative analysis of metabolites can represent the activity of corresponding CYPs.

CYP2C9 [1] = molecular target: T2, CYP2C9 (Homo sapiens, UniProt P11712); experiment: Time-dependent inhibition of CYP2C9 in human liver microsomes; type: in vitro ADME; settings: CEP 20 μM, pre-incubation with HLM 30 min, incubation 0–30 min
T2 construct: from tissue; host or cells: pooled human liver microsomes
T2 sequence (P11712 whole entry): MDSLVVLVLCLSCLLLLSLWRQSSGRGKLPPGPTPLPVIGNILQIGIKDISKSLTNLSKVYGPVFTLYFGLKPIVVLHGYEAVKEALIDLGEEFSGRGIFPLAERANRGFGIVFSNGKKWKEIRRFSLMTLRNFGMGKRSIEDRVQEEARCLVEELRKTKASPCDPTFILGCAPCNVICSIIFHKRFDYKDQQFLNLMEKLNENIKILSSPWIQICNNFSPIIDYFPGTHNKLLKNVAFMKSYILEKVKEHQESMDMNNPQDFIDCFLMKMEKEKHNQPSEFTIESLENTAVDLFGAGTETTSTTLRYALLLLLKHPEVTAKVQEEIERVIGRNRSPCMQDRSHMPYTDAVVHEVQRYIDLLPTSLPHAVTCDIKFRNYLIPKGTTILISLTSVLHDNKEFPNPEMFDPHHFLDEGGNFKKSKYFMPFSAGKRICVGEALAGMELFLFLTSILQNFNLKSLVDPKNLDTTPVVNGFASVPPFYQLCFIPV
Procedure: (§3) After incubation, an aliquot (20 μL) was transferred to another incubation tube (final volume 200 μL) containing an NADPH-generating system and probe substrates whose final concentrations were approximate to Km. Then, further incubations were performed to measure the residual activity. After being incubated for 0, 5, 10, 15, and 30 min, the reactions were terminated by adding a 100 μL acetonitrile internal standard mix and then placed on ice; the corresponding metabolites were determined by HPLC.

CYP2C9 [2] = molecular target: T2, CYP2C9; experiment: CYP2C9 inhibition in pooled human liver microsomes (diclofenac 4′-hydroxylation); type: in vitro ADME
Procedure: as §1, §2
(§4) The enzyme kinetic parameters for the probe reaction were estimated from the best fit line, using least-squares linear regression of the inverse substrate concentration versus the inverse velocity (Lineweaver-Burk plots), and the mean values were used to calculate Vmax and Km. Inhibition data from the experiments that were conducted using multiple compound concentrations were represented by Dixon plots, and inhibition constant (Ki) values were calculated using non-linear regression according to the following equation: v=(VmaxS/Km(1+I/Ki)+S) where I is the concentration of the compound, Ki is the inhibition constant, S is the concentration of the substrate, and Km is the substrate concentration at half the maximum velocity (Vmax) of the reaction. The mechanism of the inhibition was inspected using the Lineweaver–Burk plots and the enzyme inhibition models. The data comparison was performed using Student’s t-test and performed using IBM SPSS statistics version 20 (IBM SPSS Inc., Armonk, NY).

CYP2E1 [3] = molecular target: T3, CYP2E1 (Homo sapiens, UniProt P05181); experiment: CYP2E1 inhibition in pooled human liver microsomes (chlorzoxazone 6-hydroxylation); type: in vitro ADME
T3 construct: CYP2E1 catalysed reactions (chlorzoxazone 6-hydroxylation) in pooled HLM; from tissue; host or cells: pooled human liver microsomes
T3 sequence (P05181 whole entry): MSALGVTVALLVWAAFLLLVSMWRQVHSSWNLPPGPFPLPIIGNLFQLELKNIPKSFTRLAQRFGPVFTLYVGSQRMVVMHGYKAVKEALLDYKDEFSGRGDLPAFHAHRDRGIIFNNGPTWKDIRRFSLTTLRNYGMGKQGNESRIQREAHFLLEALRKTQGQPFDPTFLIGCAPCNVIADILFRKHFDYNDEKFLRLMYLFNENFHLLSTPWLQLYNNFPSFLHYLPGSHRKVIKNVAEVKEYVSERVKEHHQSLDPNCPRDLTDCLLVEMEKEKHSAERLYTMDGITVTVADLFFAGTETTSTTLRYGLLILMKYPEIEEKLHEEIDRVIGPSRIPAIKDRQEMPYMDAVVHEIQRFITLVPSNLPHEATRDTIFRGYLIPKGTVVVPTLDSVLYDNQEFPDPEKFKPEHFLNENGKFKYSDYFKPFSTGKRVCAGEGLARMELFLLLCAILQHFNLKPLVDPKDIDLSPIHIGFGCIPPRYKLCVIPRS
Procedure: as §1, §2, §4

CYP1A2 = molecular target: T4, CYP1A2 (Homo sapiens, UniProt P05177); experiment: CYP1A2 inhibition in pooled human liver microsomes (phenacetin O-deethylation); type: in vitro ADME; settings: CEP 100 μM, pooled HLMs
T4 construct: from tissue; host or cells: pooled human liver microsomes
T4 sequence (P05177 1-516): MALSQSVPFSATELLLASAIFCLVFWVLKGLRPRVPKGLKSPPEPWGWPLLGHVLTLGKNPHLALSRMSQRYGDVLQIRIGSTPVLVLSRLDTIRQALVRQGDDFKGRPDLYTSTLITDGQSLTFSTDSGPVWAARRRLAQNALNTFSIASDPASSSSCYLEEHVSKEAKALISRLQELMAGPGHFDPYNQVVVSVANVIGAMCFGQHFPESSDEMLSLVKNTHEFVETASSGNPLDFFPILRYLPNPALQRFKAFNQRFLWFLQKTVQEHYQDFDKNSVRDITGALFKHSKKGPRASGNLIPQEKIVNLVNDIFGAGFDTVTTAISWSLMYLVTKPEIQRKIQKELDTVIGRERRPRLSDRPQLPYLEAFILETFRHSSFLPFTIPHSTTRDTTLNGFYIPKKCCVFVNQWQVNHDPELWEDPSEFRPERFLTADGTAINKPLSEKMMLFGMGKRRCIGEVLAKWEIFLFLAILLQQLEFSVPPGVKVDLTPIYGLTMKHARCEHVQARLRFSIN
Procedure: as §1, §2

CYP3A4 [4] = molecular target: T5, CYP3A4 (Homo sapiens, UniProt P08684); experiment: Time-dependent inhibition of CYP3A4 in human liver microsomes; type: in vitro ADME
T5 construct: CYP3A4 catalysed reactions (testosterone 6β-hydroxylation) in pooled HLM; from tissue; host or cells: pooled human liver microsomes
T5 sequence (P08684 whole entry): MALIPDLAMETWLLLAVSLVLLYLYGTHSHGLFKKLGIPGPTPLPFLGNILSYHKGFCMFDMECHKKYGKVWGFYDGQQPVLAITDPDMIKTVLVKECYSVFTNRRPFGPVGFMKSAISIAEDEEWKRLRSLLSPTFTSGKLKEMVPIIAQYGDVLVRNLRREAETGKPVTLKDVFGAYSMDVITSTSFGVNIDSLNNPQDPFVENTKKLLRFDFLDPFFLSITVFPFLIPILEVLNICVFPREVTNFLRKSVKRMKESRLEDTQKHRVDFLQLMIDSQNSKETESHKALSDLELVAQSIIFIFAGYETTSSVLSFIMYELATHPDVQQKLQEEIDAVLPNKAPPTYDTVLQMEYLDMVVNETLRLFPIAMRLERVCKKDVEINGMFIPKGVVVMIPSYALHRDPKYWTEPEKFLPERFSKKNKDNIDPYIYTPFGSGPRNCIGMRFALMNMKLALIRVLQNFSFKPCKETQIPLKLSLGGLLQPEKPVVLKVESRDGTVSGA
Procedure: as §3

CYP2E1 [5] = molecular target: T3, CYP2E1; experiment: Time-dependent inhibition of CYP2E1 in human liver microsomes; type: in vitro ADME; settings: CEP 20 μM, pre-incubation with HLM 30 min, incubation 0–30 min
Procedure: as §3

CYP3A4 [6] = molecular target: T5, CYP3A4; experiment: CYP3A4 inhibition in pooled human liver microsomes (testosterone 6β-hydroxylation); type: in vitro ADME
Procedure: All incubations were performed in triplicate, and the mean values were utilized.
The reaction was terminated by adding a 100 μL acetonitrile (10% trichloroacetic acid for CYP2A6) internal standard mix, and the solution was placed on ice. The mixture was centrifuged at 12,000 rpm for 10 min, and an aliquot (50 μL) of supernatant was transferred for HPLC analysis.
The enzyme kinetic parameters for the probe reaction were estimated from the best fit line, using least-squares linear regression of the inverse substrate concentration versus the inverse velocity (Lineweaver-Burk plots), and the mean values were used to calculate Vmax and Km. […] The mechanism of the inhibition was inspected using the Lineweaver–Burk plots and the enzyme inhibition models.

CYP2C19 = molecular target: T6, CYP2C19 (Homo sapiens, UniProt P33261); experiment: CYP2C19 inhibition in pooled human liver microsomes (S-mephenytoin 4-hydroxylation); type: in vitro ADME; settings: CEP 100 μM, pooled HLMs
T6 construct: from tissue; host or cells: pooled human liver microsomes
T6 sequence (P33261 whole entry): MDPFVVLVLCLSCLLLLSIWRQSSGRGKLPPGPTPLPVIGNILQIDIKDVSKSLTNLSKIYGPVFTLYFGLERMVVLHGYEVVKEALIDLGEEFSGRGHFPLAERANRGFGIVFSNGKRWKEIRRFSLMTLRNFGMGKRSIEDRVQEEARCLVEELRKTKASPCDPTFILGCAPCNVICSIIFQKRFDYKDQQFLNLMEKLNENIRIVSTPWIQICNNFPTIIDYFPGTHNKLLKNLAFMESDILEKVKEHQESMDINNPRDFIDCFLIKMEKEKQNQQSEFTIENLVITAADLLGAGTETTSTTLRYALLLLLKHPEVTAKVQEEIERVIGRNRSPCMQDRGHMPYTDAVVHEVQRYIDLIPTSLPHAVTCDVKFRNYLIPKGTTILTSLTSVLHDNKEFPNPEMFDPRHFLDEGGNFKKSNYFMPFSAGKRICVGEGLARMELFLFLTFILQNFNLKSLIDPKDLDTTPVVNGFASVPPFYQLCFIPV
Procedure: as §1, §2

CYP2A6 = molecular target: T7, CYP2A6 (Homo sapiens, UniProt P11509); experiment: CYP2A6 inhibition in pooled human liver microsomes (coumarin 7-hydroxylation); type: in vitro ADME; settings: CEP 100 μM, pooled HLMs
T7 construct: from tissue; host or cells: pooled human liver microsomes
T7 sequence (P11509 1-494): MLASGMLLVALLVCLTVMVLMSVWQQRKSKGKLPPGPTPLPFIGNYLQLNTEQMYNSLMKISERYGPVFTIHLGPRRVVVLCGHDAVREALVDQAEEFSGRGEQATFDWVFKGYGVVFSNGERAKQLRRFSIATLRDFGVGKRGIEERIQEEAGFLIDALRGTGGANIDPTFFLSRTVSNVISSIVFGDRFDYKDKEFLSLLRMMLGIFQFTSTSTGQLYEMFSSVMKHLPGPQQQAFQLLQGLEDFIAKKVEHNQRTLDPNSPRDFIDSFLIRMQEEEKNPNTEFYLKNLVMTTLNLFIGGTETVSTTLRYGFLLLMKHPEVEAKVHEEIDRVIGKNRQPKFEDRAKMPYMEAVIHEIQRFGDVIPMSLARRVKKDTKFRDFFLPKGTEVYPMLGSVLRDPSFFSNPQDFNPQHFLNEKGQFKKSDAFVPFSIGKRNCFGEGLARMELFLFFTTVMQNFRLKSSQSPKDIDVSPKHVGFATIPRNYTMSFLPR
Procedure: as §1, §2

CYP2D6 = molecular target: T8, CYP2D6 (Homo sapiens, UniProt P10635); experiment: CYP2D6 inhibition in pooled human liver microsomes (dextromethorphan O-demethylation); type: in vitro ADME; settings: CEP 100 μM, pooled HLMs
T8 construct: from tissue; host or cells: pooled human liver microsomes
T8 sequence (P10635 whole entry): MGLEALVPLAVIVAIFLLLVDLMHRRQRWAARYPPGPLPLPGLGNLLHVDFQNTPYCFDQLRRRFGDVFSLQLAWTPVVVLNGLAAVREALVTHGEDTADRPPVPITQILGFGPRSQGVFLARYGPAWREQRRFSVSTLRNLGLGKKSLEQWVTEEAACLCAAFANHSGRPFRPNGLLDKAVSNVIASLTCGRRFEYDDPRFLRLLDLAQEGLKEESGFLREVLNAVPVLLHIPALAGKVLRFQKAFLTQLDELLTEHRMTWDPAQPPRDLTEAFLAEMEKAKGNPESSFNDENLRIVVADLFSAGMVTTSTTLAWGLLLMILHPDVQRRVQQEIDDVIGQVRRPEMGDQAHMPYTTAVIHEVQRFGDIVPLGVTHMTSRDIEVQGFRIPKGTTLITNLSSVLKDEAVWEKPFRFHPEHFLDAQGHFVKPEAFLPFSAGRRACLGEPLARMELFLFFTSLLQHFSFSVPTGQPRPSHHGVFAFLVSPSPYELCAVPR
Procedure: as §1, §2

[7] = set-up: method as in Jiang et al. [2016]; settings: rats, orally administered CEP 10 mg/kg; ref Jiang et al. [2016]; cited from earlier work

Effect on CYP2C8 activity (CYP2C8): not affected
Time-dependent change of CYP2C9 activity (CYP2C9 [1]): not affected
Ki (CYP2C9 [2]): 13.1 µM
activity at 100 μM (CYP2C9 [2]; human, pooled human liver microsomes, pH 7.4, probe diclofenac (4′-hydroxylation), read-out: CYP2C9 activity, % of control activity): 18.1%
Inhibition manner on CYP2C9 (Lineweaver–Burk plots) (CYP2C9 [2]; pooled HLMs): competitive
IC50 (CYP2C9 [2]; pooled HLMs, diclofenac 4′-hydroxylation): 24.6 µM
Ki (CYP2E1 [3]): 11.8 µM
activity at 100 μM (CYP2E1 [3]; human, pooled human liver microsomes, pH 7.4, probe chlorzoxazone (6-hydroxylation), read-out: CYP2E1 activity, % of control activity): 23.6%
Inhibition manner on CYP2E1 (Lineweaver–Burk plots) (CYP2E1 [3]; pooled HLMs): competitive
IC50 (CYP2E1 [3]; pooled HLMs, chlorzoxazone 6-hydroxylation): 25.6 µM
Effect on CYP1A2 activity (CYP1A2): not affected
Time-dependent change of CYP3A4 activity (CYP3A4 [4]; CEP 20 μM, pre-incubation with HLM 30 min, incubation 0–30 min): decreased with the incubation time
CYP3A4 inactivated each minute at a saturating concentration of CEP (CYP3A4 [4]; HLM, from Kinact): about 5.8%
Time-dependent change of CYP2E1 activity (CYP2E1 [5]): not affected
activity at 100 μM (CYP3A4 [6]; human, pooled human liver microsomes, pH 7.4, probe testosterone (6β-hydroxylation), read-out: CYP3A4 activity, % of control activity): 12.6%
Inhibition manner on CYP3A4 (Lineweaver–Burk plots) (CYP3A4 [6]; pooled HLMs): non-competitive
Effect on CYP2C19 activity (CYP2C19): not affected
Effect on CYP2A6 activity (CYP2A6): not affected
Effect on CYP2D6 activity (CYP2D6): not affected
Structure (SMILES): COc1ccc2cc1Oc1ccc(cc1)C[C@H]1c3c(cc4c(c3Oc3cc5c(cc3OC)CCN(C)[C@@H]5C2)OCO4)CCN1C [CEP, Cepharanthine]
plasma Cmax [7]: approximately 0.05 μg/mL
